Calls of active or inactive are those of the source. No cut-off for these calls is given here.
What was measured:
A549 [1] = experiment: Anti-invasive activity in human A549 cells assessed as reduction in osteopontin-induced ROCK1 expression after 24 hrs by Western blot method; format: functional, cell-based
Homo sapiens [2] = species on record: Homo sapiens; experiment: Inhibition of FAK/AKT/ROCK in human H1299 cells assessed as reduction in osteopontin-induced cell invasion at 1 to 2 uM preincubated for 30 mins followed by osteopontin addition measured after 24 hrs by Diff-quick staining based matrigel-mediated Boyden chamber assay
A549 [3] = experiment: Inhibition of FAK/AKT/ROCK in human A549 cells assessed as reduction in osteopontin-induced cofilin phosphorylation after 24 hrs by Western blot method; format: cell-based
A549 [4] = experiment: Inhibition of FAK/AKT/ROCK in human A549 cells assessed as reduction in osteopontin-induced LIMK1/2 phosphorylation after 24 hrs by Western blot method; format: cell-based
Homo sapiens [5] = species on record: Homo sapiens; experiment: Inhibition of FAK/AKT/ROCK in human H1299 cells assessed as reduction in osteopontin-induced cell motility at 1 to 2 uM preincubated for 30 mins followed by osteopontin addition measured after 24 hrs by Diff-quick staining based matrigel-mediated Boyden chamber assay
A549 [6] = experiment: Effect on total cofilin protein expression level in human A549 cells at 1 to 2 uM after 24 hrs by Western blot method; format: ADME, cell-based; details: a549, 24 h
Mus musculus = experiment: Toxicity in BalB/c nude mouse assessed as change in body weight at 5 mg/kg, ip administered once daily for 8 weeks measured every week of compound dosing; format: organism-based; details: in vivo, 1344 h
A549 [7] = experiment: Inhibition of FAK/AKT/ROCK in human A549 cells assessed as reduction in osteopontin-induced cell motility at 1 uM preincubated for 30 mins followed by osteopontin addition measured after 24 hrs by Diff-quick staining based matrigel-mediated Boyden chamber assay relative to control
A549 [8] = experiment: Cytotoxicity against human A549 cells assessed as reduction in cell viability at 2 to 8 uM after 24 hrs by MTT assay; format: cell-based; details: a549, 24 h
A549 [9] = experiment: Inhibition of FAK/AKT/ROCK in human A549 cells assessed as reduction in osteopontin-induced lamellipodia formation at 2 uM after 24 hrs by rhodamine phalloidin/DAPI staining based confocal microscopic analysis; format: cell-based
[10] = target: Focal adhesion kinase 1 (Homo sapiens) (UniProt Q05397); experiment: Inhibition of osteopontin-induced FAK phosphorylation in human A549 cells at 1 to 2 uM after 15 mins by Western blot method; format: cell-based
A549 [11] = experiment: Inhibition of FAK/AKT/ROCK in human A549 cells assessed as reduction in osteopontin-induced cell invasion at 2 uM preincubated for 30 mins followed by osteopontin addition measured after 24 hrs by Diff-quick staining based matrigel-mediated Boyden chamber assay relative to control
A549 [12] = experiment: Inhibition of FAK/AKT/ROCK in human A549 cells assessed as reduction in osteopontin-induced cell invasion at 1 uM preincubated for 30 mins followed by osteopontin addition measured after 24 hrs by Diff-quick staining based matrigel-mediated Boyden chamber assay relative to control
A549 [13] = experiment: Inhibition of FAK/AKT/ROCK in human A549 cells assessed as reduction in osteopontin-induced cell motility at 2 uM preincubated for 30 mins followed by osteopontin addition measured after 24 hrs by Diff-quick staining based matrigel-mediated Boyden chamber assay relative to control
[14] = Cytotoxicity against human A549 cells after 24 hrs by MTT assay; format: cell-based; details: read-out: MNCC
A549 [15] = experiment: Effect on total LIMK2 expression level in human A549 cells at 1 to 2 uM after 24 hrs by Western blot method; format: ADME, cell-based; details: a549, 24 h
A549 [16] = experiment: Anticancer activity against human A549 cells xenografted in BalB/c nude mouse assessed as reduction in osteopontin-induced lung metastasis at 5 mg/kg, ip administered once daily for 8 weeks by India ink staining based method; format: functional, organism-based
A549 [17] = experiment: Effect on total AKT expression level in human A549 cells at 1 to 2 uM after 15 mins by Western blot method; format: ADME, cell-based; details: a549, 0.25 h
A549 [18] = experiment: Effect on total FAK expression levels in human A549 cells at 1 to 2 uM measured after 15 mins by Western blot method; format: ADME, cell-based; details: a549, 0.25 h
[19] = target: RAC-alpha serine/threonine-protein kinase (Homo sapiens) (UniProt P31749); experiment: Inhibition of osteopontin-induced AKT phosphorylation in human A549 cells at 1 to 2 uM after 15 mins by Western blot method; format: cell-based
RAC-alpha serine/threonine-protein kinase (Homo sapiens), sequence (P31749 whole entry): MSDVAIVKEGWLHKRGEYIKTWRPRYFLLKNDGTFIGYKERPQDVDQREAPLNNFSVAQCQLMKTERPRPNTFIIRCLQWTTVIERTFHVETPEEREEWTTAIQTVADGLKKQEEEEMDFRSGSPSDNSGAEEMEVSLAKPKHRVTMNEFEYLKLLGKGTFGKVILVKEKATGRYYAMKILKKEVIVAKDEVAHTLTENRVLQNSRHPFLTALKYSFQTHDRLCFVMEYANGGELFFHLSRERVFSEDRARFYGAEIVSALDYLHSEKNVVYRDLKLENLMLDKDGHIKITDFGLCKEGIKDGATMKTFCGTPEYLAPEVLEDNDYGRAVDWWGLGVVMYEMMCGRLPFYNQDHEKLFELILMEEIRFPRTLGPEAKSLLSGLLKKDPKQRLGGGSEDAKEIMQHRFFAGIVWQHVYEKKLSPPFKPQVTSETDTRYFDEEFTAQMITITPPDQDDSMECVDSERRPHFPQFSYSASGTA

Focal adhesion kinase 1 (Homo sapiens), sequence (Q05397 2-1052 limits assumed): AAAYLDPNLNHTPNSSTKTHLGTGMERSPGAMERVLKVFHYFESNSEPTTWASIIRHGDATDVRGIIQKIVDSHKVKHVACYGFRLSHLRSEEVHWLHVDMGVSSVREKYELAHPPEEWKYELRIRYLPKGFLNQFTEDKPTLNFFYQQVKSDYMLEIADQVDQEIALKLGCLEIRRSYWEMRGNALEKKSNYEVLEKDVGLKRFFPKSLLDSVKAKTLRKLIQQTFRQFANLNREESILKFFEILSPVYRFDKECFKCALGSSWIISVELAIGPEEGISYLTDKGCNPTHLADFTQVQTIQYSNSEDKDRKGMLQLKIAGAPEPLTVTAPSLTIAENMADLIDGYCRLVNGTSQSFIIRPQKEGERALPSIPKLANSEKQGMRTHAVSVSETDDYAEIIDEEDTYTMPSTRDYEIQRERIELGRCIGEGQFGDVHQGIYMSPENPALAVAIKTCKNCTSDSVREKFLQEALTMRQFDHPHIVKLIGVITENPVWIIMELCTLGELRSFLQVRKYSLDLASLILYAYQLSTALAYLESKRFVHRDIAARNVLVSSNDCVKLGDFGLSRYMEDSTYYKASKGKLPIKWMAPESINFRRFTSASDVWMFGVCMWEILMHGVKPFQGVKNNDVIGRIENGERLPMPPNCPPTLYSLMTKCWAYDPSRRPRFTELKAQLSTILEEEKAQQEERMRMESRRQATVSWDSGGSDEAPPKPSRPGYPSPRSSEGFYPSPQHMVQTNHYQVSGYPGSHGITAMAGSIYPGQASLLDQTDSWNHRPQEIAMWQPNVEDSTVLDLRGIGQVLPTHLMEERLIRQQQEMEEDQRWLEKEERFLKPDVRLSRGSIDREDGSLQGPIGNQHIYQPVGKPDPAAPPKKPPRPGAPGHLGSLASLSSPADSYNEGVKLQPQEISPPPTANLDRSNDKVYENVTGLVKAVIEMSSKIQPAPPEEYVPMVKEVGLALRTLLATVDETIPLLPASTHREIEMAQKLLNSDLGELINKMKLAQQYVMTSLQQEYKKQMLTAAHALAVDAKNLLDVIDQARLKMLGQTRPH

In the case of `CC1=CC(=O)c2c(O)cccc2C1=O` [PLUMBAGIN], the Activity (A549 [1]) is reported as “Dose-dependent effect”, the inhibition (Homo sapiens [2]) is reported as “Active” and the inhibition (A549 [3]) is reported as “Dose-dependent effect”. For the same molecule, the inhibition (A549 [4]) was “Dose-dependent effect”, the inhibition (Homo sapiens [5]) was “Active” and the Activity (A549 [6]) was “Non-Toxic”. The Activity (Mus musculus) was “Non-Toxic”, the inhibition (A549 [7]) was 52% and the Activity (A549 [8]) was “Dose-dependent effect”. For the same molecule, the inhibition (A549 [9]) was “Active”, the inhibition [10] was “Active” and the inhibition (A549 [11]) was 67%. For the same molecule, the inhibition (A549 [12]) was 38%, the inhibition (A549 [13]) was 74% and the MNTC at 24 h [14] was ≤ 2000 nM. For the same molecule, the Activity (A549 [15]) was “Non-Toxic”, the Activity (A549 [16]) was “Active” and the Activity (A549 [17]) was “Non-Toxic”. For the same molecule, the Activity (A549 [18]) was “Non-Toxic” and the inhibition [19] was “Active”.

From ChEMBL document CHEMBL4011611, “Plumbagin reduces osteopontin-induced invasion through inhibiting the Rho-associated kinase signaling pathway in A549 cells and suppresses osteopontin-induced lung metastasis in BalB/c mice” (Bioorg Med Chem Lett, 2017)
